Laboratory results reported in article PMC12511196 (European Journal of Clinical Pharmacology, 2025).

Experiments:
serotonin reuptake = details: cited from earlier work
CYP2D6 = details: cited from earlier work
[1] = cited from earlier work
[2] = Treatment switch from fluoxetine to an alternative antidepressant (proxy for therapeutic failure) by CYP2D6 phenotype; format: in vivo, human; details: adult patients; for Switch to alternative antidepressant, Frequency (%): within one year after last fluoxetine measurement
From the text: Consequently, an antidepressant switch was used as a proxy marker for therapeutic failure, regardless of the cause.
IBM SPSS Statistics version 28.0.1.1 (SPSS Inc, Chicago, IL) was used for statistical analysis and graphical presentations. Continuous variables were reported as median (range). The associations between CYP2D6 phenotype and pharmacokinetic measures such as absolute concentrations, C/D ratios and metabolic ratios were examined using Kruskal–Wallis test followed by Bonferroni-corrected Dunn’s test using CYP2D6 NMs as reference group. […] A p value below 0.05 was considered statistically significant.

[3] = cited from earlier work; remark: listed apart in the source

SMILES | Potency as SSRI relative to R-norfluoxetine (serotonin reuptake) | Type of CYP2D6 inhibition (CYP2D6) | Distribution to the brain [1] | Switch to alternative antidepressant where genotyping was not performed within the switch period, Frequency (%) ([2]; CYP2D6 IMs (n = 347)) | Switch to alternative antidepressant where genotyping was not performed within the switch period, Frequency (%) ([2]; CYP2D6 NMs (n = 587)) | Switch to alternative antidepressant where genotyping was not performed within the switch period, Frequency (%) ([2]; CYP2D6 PMs (n = 68)) | Switch to alternative antidepressant where genotyping was not performed within the switch period, Frequency (%) ([2]; CYP2D6 UMs (n = 25)) | Switch to alternative antidepressant where genotyping was not performed within the switch period, Frequency (%) ([2]; Total (n = 1027)) | Switch to alternative antidepressant, Frequency (%) ([2]; CYP2D6 IMs (n = 347)) | Switch to alternative antidepressant, Frequency (%) ([2]; CYP2D6 NMs (n = 587)) | Switch to alternative antidepressant, Frequency (%) ([2]; CYP2D6 PMs (n = 68)) | Switch to alternative antidepressant, Frequency (%) ([2]; CYP2D6 UMs (n = 25)) | Switch to alternative antidepressant, Frequency (%) ([2]; Total (n = 1027)) | Elimination half-life [3]
NCC[C@H](Oc1ccc(C(F)(F)F)cc1)c1ccccc1 [S-norfluoxetine] | approximately 20 times | – | – | – | – | – | – | – | – | – | – | – | – | –
NCCC(Oc1ccc(C(F)(F)F)cc1)c1ccccc1 (stereo not drawn) [norfluoxetine] | – | competitive and reversible inhibitors | – | – | – | – | – | – | – | – | – | – | – | –
CNCCC(Oc1ccc(C(F)(F)F)cc1)c1ccccc1 (stereo not drawn) [fluoxetine] | – | competitive and reversible inhibitors | more distributed to the brain than norfluoxetine | 6.3% | 6.6% | 10.3% | 12.0% | 6.9% | 8.6% | 8.3% | 19.1% | 24.0% | 9.5% | one to four
